# Laboratory results: patent US12534474B2, “Dihydrofuropyridine derivatives as rho-kinase inhibitors” (CHIESI FARMACEUTICI S.P.A., priority 2020, dated 2026)
# Tests used:
# Format in all cases: biochemical
# ROCK2 [1] = biological target: T1, ROCK2 (Homo sapiens, UniProt O75116); experiment: In vitro Rho kinase inhibitory activity assay, ADP-Glo, Method A (ATP 10 μM); conditions: read-out: Method A ROCK 2 (Ki)
# Experimental: (§1) In Vitro Inhibitory Activity Assay Description (Method A)
# (§2) The effectiveness of compounds of the present invention to inhibit Rho kinase activity can be determined in a 10 μL assay containing 40 mM Tris pH7.5, 20 mM MgCl2 0.1 mg/mL BSA, 50 μM DTT and 2.5 μM peptide substrate (Myelin Basic Protein) using an ADP-Glo kit (Promega). Compounds were dissolved in DMSO such that the final concentration of DMSO was 1% in the assay. All reactions/incubations are performed at 25° C. Compound (2 μL) and either Rho kinase 1 or 2 (4 μL) were mixed and incubated for 30 min. Reactions were initiated by addition of ATP (4 μL) such that the final concentration of ATP in the assay was 10 μM. After a 1 hour incubation 10 μL of ADP-Glo Reagent was added and after a further 45 minute incubation 20 μL of Kinase Detection Buffer was added and the mixture incubated for a further 30 minutes. The luminescent signal was measured on a luminometer. […] Compounds were tested in dose-response format and the inhibition of kinase activity was calculated at each concentration of compound. To determine the IC50 (concentration of compound required to inhibit 50% of the enzyme activity) data were fit to a plot of % inhibition vs Log10 compound concentration using a sigmoidal fit with a variable slope and fixing the maximum to 100% and the minimum to 0%. To determine the Ki values the Cheng-Prusoff equation was utilized (Ki=IC50/(1+[S]/Km).
# ROCK1 [2] = biological target: T2, ROCK1 (Homo sapiens, UniProt Q13464); experiment: as above; conditions: read-out: Method A ROCK 1 (Ki)
# Experimental: as §1, §2
# ROCK2 [3] = biological target: T1, ROCK2; experiment: In vitro Rho kinase inhibitory activity assay, ADP-Glo, Method B (ATP 200 μM); conditions: read-out: Method B ROCK 2 (Ki)
# Experimental: (§3) In Vitro Inhibitory Activity Assay Description (Method B)
# as §2, with “(2 ul)” for “(2 μL)”, “was 200” for “was 10”, “20 ul” for “20 μL”, “vs Log 10” for “vs Log10”
# ROCK1 [4] = biological target: T2, ROCK1; experiment: as above; conditions: read-out: Method B ROCK 1 (Ki)
# Experimental: as §3
# as §2, with “(2 ul)” for “(2 μL)”, “was 200” for “was 10”, “20 ul” for “20 μL”, “vs Log 10” for “vs Log10”
# PKA = PKA (Homo sapiens, UniProt P17612); experiment: In vitro inhibitory activity assay for PKA, ADP-Glo, reported as selectivity ratio vs ROCK2; conditions: Ki for PKA divided by Ki of ROCK2 (Method B)
# Experimental: In Vitro Inhibitory Activity Assay Description for PKA
# The effectiveness of compounds of the present invention to inhibit PKA activity can be determined in a 10 μL assay containing 40 mM Tris pH7.5, 20 mM MgCl2 0.1 mg/mL BSA, 50 μM DTT and 260 μM peptide substrate (kemptide) using an ADP-Glo kit (Promega). Compounds were dissolved in DMSO such that the final concentration of DMSO was 1% in the assay. All reactions/incubations are performed at 25° C. Compound and PKA enzyme (6 μL) were mixed and incubated for 30 min. Reactions were initiated by addition of ATP (4 μL) such that the final concentration of ATP in the assay was 10 μM. After a 30 minute incubation 10 μL of ADP-Glo Reagent was added and after a further 1 hour incubation 20 μL of Kinase Detection Buffer was added and the mixture incubated for a further 45 minutes. The luminescent signal was measured on a luminometer. […] Compounds were tested in dose-response format and the inhibition of kinase activity was calculated at each concentration of compound. To determine the IC50 (concentration of compound required to inhibit 50% of the enzyme activity) data were fit to a plot of % inhibition vs Log10 compound concentration using a sigmoidal fit with a variable slope and fixing the maximum to 100% and the minimum to 0%. To determine the Ki values the Cheng-Prusoff equation was utilized (Ki=IC50/(1+[S]/Km).
# In vitro inhibitory activities for PKA were reported as selectivity ratio vs. ROCK2. Selectivity ratio PKA/ROCK2 was calculated by dividing the Ki value for PKA by Ki value of ROCK2 (Method B) and reported into table 1.
# T1 sequence (O75116 whole entry): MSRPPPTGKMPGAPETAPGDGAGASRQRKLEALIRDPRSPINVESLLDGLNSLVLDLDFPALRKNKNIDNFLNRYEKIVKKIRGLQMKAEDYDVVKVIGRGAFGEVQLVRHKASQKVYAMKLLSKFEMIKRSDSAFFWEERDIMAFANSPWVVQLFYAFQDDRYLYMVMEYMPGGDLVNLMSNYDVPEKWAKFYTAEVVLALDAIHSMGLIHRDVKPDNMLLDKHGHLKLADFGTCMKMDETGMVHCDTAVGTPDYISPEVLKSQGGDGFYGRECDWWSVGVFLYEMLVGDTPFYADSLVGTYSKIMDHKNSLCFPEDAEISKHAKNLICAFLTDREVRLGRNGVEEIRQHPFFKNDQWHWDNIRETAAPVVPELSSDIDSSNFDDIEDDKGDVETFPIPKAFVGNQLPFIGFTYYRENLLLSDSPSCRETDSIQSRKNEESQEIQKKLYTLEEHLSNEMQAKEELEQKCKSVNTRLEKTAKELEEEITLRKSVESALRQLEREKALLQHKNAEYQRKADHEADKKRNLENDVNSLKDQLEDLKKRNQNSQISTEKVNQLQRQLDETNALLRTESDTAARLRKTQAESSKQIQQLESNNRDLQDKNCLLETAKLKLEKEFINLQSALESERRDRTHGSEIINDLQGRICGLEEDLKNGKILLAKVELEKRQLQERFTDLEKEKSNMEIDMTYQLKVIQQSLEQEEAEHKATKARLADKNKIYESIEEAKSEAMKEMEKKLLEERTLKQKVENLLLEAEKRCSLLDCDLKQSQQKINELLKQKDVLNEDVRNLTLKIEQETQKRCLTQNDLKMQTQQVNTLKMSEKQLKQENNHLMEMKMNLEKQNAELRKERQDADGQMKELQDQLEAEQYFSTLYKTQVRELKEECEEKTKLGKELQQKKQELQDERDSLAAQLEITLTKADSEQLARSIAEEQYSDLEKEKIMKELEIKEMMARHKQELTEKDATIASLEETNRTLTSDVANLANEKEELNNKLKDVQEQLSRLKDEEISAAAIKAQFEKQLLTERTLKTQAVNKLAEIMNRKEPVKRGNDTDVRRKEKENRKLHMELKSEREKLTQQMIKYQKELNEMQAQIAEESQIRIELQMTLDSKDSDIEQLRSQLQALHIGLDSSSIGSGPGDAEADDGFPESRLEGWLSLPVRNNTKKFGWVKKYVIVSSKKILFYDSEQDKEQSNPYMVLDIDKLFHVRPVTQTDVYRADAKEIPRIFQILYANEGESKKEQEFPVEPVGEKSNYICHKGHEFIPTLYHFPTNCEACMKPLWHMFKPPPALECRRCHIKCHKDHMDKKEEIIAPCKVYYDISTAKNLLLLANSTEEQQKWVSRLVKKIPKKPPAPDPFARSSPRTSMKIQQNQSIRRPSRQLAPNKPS
# T2 sequence (Q13464 whole entry): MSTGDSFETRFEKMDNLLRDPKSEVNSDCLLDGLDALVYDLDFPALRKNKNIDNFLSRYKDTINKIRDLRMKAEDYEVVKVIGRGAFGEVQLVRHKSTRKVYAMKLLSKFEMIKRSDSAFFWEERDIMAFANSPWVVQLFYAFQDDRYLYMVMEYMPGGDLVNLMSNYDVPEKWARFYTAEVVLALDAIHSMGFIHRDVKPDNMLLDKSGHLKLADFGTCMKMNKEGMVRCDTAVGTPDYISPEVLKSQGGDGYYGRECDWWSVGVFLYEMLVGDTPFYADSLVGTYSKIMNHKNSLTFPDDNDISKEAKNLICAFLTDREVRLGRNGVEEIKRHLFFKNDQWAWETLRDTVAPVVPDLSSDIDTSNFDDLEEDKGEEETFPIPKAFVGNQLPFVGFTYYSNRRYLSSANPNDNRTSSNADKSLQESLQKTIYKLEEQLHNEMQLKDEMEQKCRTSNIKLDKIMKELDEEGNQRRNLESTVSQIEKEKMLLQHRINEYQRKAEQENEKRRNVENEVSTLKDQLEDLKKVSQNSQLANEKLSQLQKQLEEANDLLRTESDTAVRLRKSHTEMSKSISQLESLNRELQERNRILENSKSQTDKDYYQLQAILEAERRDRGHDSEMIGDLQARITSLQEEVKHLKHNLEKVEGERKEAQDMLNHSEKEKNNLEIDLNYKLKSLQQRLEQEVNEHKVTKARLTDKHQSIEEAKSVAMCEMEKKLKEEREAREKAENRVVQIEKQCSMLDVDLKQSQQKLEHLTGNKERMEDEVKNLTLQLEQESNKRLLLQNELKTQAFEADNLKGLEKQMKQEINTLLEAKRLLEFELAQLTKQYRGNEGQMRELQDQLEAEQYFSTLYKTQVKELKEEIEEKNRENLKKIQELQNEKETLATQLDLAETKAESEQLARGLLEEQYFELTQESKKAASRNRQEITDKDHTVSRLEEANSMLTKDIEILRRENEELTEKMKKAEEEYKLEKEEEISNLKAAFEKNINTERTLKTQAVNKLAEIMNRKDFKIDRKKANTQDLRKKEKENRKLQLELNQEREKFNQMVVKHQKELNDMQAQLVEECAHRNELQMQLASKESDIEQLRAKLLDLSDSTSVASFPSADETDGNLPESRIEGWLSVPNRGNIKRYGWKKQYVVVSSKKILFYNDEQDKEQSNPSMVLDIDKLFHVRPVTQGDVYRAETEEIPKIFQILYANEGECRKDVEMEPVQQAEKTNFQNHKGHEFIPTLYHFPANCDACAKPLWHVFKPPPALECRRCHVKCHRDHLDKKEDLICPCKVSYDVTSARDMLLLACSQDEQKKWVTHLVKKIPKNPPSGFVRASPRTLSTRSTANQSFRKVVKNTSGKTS
Ki (ROCK2 [1]),Ki (ROCK1 [2]),Ki (ROCK2 [3]),Ki (ROCK1 [4]),Ratio (PKA/ROCK2) (PKA),Structure (SMILES)
≤ 3 nM,≤ 3 nM,,,,"CN1CCc2nc(NC(=O)c3cccc(CNc4ncc(-c5ccnc(F)c5)c5c4CCO5)c3)sc2C1 [Example 50, 3-(((7-(2-fluoropyridin-4-yl)-2,3-dihydrofuro[3,2-c]pyridin-4-yl)amino)methyl)-N-(5-methyl-4,5,6,7-tetrahydrothiazolo[5,4-c]pyridin-2-yl)benzamide]"
3 to 30 nM,3 to 30 nM,,,,"CC(=O)Nc1cccc(CNc2ncc(-c3ccncc3)c3c2CC(C)O3)c1 (stereo not drawn) [Example 55, N-(3-(((2-methyl-7-(pyridin-4-yl)-2,3-dihydrofuro[3,2-c]pyridin-4-yl)amino)methyl)phenyl)acetamide]"
≤ 3 nM,≤ 3 nM,,,,"CN1CCc2nc(NC(=O)c3cccc(CNc4ncc(-c5ccnc(N)c5)c5c4CCO5)c3)sc2C1 [Example 49, 3-(((7-(2-aminopyridin-4-yl)-2,3-dihydrofuro[3,2-c]pyridin-4-yl)amino)methyl)-N-(5-methyl-4,5,6,7-tetrahydrothiazolo[5,4-c]pyridin-2-yl)benzamide]"
3 to 30 nM,3 to 30 nM,,,,"O=C(Nc1cccc(CNc2ncc(-c3ccncc3)c3c2CCO3)c1)c1cccc(CN2CCOCC2)c1 [Example 33, 3-(morpholinomethyl)-N-(3-(((7-(pyridin-4-yl)-2,3-dihydrofuro[3,2-c]pyridin-4-yl)amino)methyl)phenyl)benzamide]"
≤ 3 nM,≤ 3 nM,,,,"CN(C)Cc1cccc(CNC(=O)c2cccc(CNc3ncc(-c4ccncc4)c4c3CCO4)c2)c1 [Example 27, N-(3-((dimethylamino)methyl)benzyl)-3-(((7-(pyridin-4-yl)-2,3-dihydrofuro[3,2-c]pyridin-4-yl)amino)methyl)benzamide]"
≤ 3 nM,≤ 3 nM,,,,"Cn1ncc2cc(C(=O)Nc3cccc(CNc4ncc(-c5ccncc5)c5c4CCO5)c3)ccc21 [Example 37, 1-methyl-N-(3-(((7-(pyridin-4-yl)-2,3-dihydrofuro[3,2-c]pyridin-4-yl)amino)methyl)phenyl)-1H-indazole-5-carboxamide]"
≤ 3 nM,≤ 3 nM,,,,"O=C(NCCc1ccncc1)c1cccc(CNc2ncc(-c3ccncc3)c3c2CCO3)c1 [Example 25, 3-(((7-(Pyridin-4-yl)-2,3-dihydrofuro[3,2-c]pyridin-4-yl)amino)methyl)-N-(2-(pyridin-4-yl)ethyl)benzamide]"
≤ 3 nM,≤ 3 nM,,,,"CN(C)CCn1ccc2cc(C(=O)Nc3cccc(CNc4ncc(-c5ccncc5)c5c4CCO5)c3)ccc21 [Example 39, 1-(2-(dimethylamino)ethyl)-N-(3-(((7-(pyridin-4-yl)-2,3-dihydrofuro[3,2-c]pyridin-4-yl)amino)methyl)phenyl)-1H-indole-5-carboxamide]"
≤ 3 nM,3 to 30 nM,,,,"CN1CCc2nc(NC(=O)c3ccnc(CNc4ncc(-c5ccncc5)c5c4CCO5)c3)sc2C1 [Example 51, N-(5-methyl-4,5,6,7-tetrahydrothiazolo[5,4-c]pyridin-2-yl)-2-(((7-(pyridin-4-yl)-2,3-dihydrofuro[3,2-c]pyridin-4-yl)amino)methyl)isonicotinamide]"
≤ 3 nM,≤ 3 nM,,,,"O=C(NCCc1cccnc1)c1cccc(CNc2ncc(-c3ccncc3)c3c2CCO3)c1 [Example 29, N-(2-(pyridin-3-yl)ethyl)-3-(((7-(pyridin-4-yl)-2,3-dihydrofuro[3,2-c]pyridin-4-yl)amino)methyl)benzamide]"
≤ 3 nM,≤ 3 nM,,,,"CN1CCc2nc(NC(=O)c3cccc(CNc4ncc(-c5ccncc5)c5c4CCO5)c3)sc2C1 [Example 23, N-(5-methyl-4,5,6,7-tetrahydrothiazolo[5,4-c]pyridin-2-yl)-3-(((7-(pyridin-4-yl)-2,3-dihydrofuro[3,2-c]pyridin-4-yl)amino)methyl)benzamide]"
≤ 3 nM,≤ 3 nM,,,,"CN1CCc2nc(C(=O)Nc3cccc(CNc4ncc(-c5ccncc5)c5c4CCO5)c3)sc2C1 [Example 34, 5-methyl-N-(3-(((7-(pyridin-4-yl)-2,3-dihydrofuro[3,2-c]pyridin-4-yl)amino)methyl)phenyl)-4,5,6,7-tetrahydrothiazolo[5,4-c]pyridine-2-carboxamide]"
,,≤ 3 nM,≤ 3 nM,*** (ratio≥10),"CN(C)CCOc1ccc(NC(=O)c2cccc(CNc3ncc(-c4ccncc4)c4c3CCO4)c2)nc1 [Example 56, N-(5-(2-(dimethylamino)ethoxy)pyridin-2-yl)-3-(((7-(pyridin-4-yl)-2,3-dihydrofuro[3,2-c]pyridin-4-yl)amino)methyl)benzamide]"
,,3 to 30 nM,3 to 30 nM,*** (ratio≥10),"O=C(NC1CC1)c1cccc(CNc2ncc(-c3ccncc3)c3c2CCO3)c1 [Example 16, N-cyclopropyl-3-(((7-(pyridin-4-yl)-2,3-dihydrofuro[3,2-c]pyridin-4-yl)amino)methyl)benzamide]"
,,≤ 3 nM,≤ 3 nM,*** (ratio≥10),"O=C(Nc1ccncn1)c1cccc(CNc2ncc(-c3ccncc3)c3c2CCO3)c1 [Example 18, 3-(((7-(pyridin-4-yl)-2,3-dihydrofuro[3,2-c]pyridin-4-yl)amino)methyl)-N-(pyrimidin-4-yl)benzamide]"
,,3 to 30 nM,3 to 30 nM,*** (ratio≥10),"O=C(NCC1(O)CC1)c1cccc(CNc2ncc(-c3ccncc3)c3c2CCO3)c1 [Example 9, N-((1-hydroxycyclopropyl)methyl)-3-(((7-(pyridin-4-yl)-2,3-dihydrofuro[3,2-c]pyridin-4-yl)amino)methyl)benzamide]"
,,≤ 3 nM,3 to 30 nM,*** (ratio≥10),"O=C(NC1CC(CO)C1)c1cccc(CNc2ncc(-c3ccncc3)c3c2CCO3)c1 (stereo not drawn) [Example 13, N-(3-(hydroxymethyl)cyclobutyl)-3-(((7-(pyridin-4-yl)-2,3-dihydrofuro[3,2-c]pyridin-4-yl)amino)methyl)benzamide]"
,,3 to 30 nM,3 to 30 nM,*** (ratio≥10),"O=C(NC1CCOCC1)c1cccc(CNc2ncc(-c3ccncc3)c3c2CCO3)c1 [Example 7, 3-(((7-(pyridin-4-yl)-2,3-dihydrofuro[3,2-c]pyridin-4-yl)amino)methyl)-N-(tetrahydro-2H-pyran-4-yl)benzamide]"
,,≤ 3 nM,3 to 30 nM,*** (ratio≥10),"O=C(NCc1cocn1)c1cccc(CNc2ncc(-c3ccncc3)c3c2CCO3)c1 [Example 8, N-(oxazol-4-ylmethyl)-3-(((7-(pyridin-4-yl)-2,3-dihydrofuro[3,2-c]pyridin-4-yl)amino)methyl)benzamide]"
